Common to all, as to assay: MIC value in microtitre plates (optical density)
What all share (type): cell-based

Test [1] concerns Candida albicans ATCC 10231. The following applies: microtitre plate, CASO bouillon, 48 hours at 37° C., optical density 620 nm, ≦20% growth; some data indicative values. On the procedure:
(§1) Determination of the Minimum Inhibiting Concentration (MIC Value) in Microtitre Plates
(§2) Casein/soybean flour peptone bouillon for the preparation of the precultures of the test bacteria and yeast.
(§3) Mycological slant agar for the preculture of moulds.
(§4) Examples of Test Organisms
(§5) The test substances are predissolved in dimethyl sulfoxide (DMSO) and tested in a serial dilution of 1:2.
(§6) Bacteria and yeast are cultured overnight in CASO bouillon, the mould on mycological slant agar and rinsed off with 10 ml of 0.85% sodium chloride solution (+0.1% TritonX-100).
(§7) All test organisms are adjusted to an organism count of 1.5×10^6 CFU/ml with 0.85% sodium chloride solution.
(§8) The test substances are prepipetted into microtitre plates in an amount of 8 μl per well.
(§9) Previously diluted organism substances are diluted 1:100 in CASO bouillon (bacteria and yeast) and Sabouraud 2% glucose bouillon (mould) and added to the test substances in an amount of 192 μl per well.
(§10) The test batches are incubated for 48 hours at 37° C. (bacteria and yeast) or for 5 days at 28° C. (mould).
(§11) After incubation, the growth is determined by reference to the turbidity of the test batches (optical density) at 620 nm in a microplate reader.
(§12) The minimum inhibiting concentration (MIC value) is the concentration of substance at which (compared with the growth control) an appreciable inhibition of the growth (≦20% growth) of the test organisms is ascertained.
(§13) One microtiter plate is used for each test organism and substance concentration. All substances tested in duplicate.

The test system of test [2] is Staphylococcus hominis DSM 20328. The following applies: microtitre plate, CASO bouillon, 48 hours at 37° C., optical density 620 nm, ≦20% growth; some data indicative values. The protocol: as §1, §2, §3, §4, §5, §6, §7, §8, §9, §10, §11, §12, §13
Test [3] deals with Escherichia coli NCTC 8196. The conditions noted are these: microtitre plate, CASO bouillon, 48 hours at 37° C., optical density 620 nm, ≦20% growth; some data indicative values. On the procedure: as §1, §2, §3, §4, §5, §6, §7, §8, §9, §10, §11, §12, §13
Test [4] concerns Aspergillus niger ATCC 6275. The following applies: microtitre plate, Sabouraud 2% glucose bouillon, 5 days at 28° C., optical density 620 nm, ≦20% growth; some data indicative values. The protocol: as §1, §2, §3, §4, §5, §6, §7, §8, §9, §10, §11, §12, §13
Test [5] relates to Pseudomonas aeruginosa CIP A-22. The conditions noted are these: microtitre plate, CASO bouillon, 48 hours at 37° C., optical density 620 nm, ≦20% growth; some data indicative values. On the procedure:
as §1, §2, §3, §4, §5, §6, §7, §8, §9, §10, §11, §12, §13

Here are results for twelve compounds from patent publication US6814960B1, “Hydroxystilbene compounds used as microbicidal active substances” (Ciba Specialty Chemicals Corporation, priority 1998, dated 2004).

Take `Oc1ccc(/C=C/c2ccccc2)cc1` [Comp. of formula 107]: the “MIC values C. albicans” value in test [1] is >100 ppm. The “MIC values S. heminis” value in test [2] is 100 ppm. In addition, in test [3], the “MIC values E. coli” value is recorded as >100 ppm. Moreover, the “MIC values A. niger” value in test [4] stood at 100 ppm. Also, in test [5], the “MIC values P. aeruginosa” value was >100 ppm.
On to `COc1ccc(/C=C/c2ccccc2)cc1O` [Comp. of formula 109], for which the “MIC values C. albicans” value in test [1] is listed as >100 ppm. Also, in test [2], the “MIC values S. heminis” value is reported as >100 ppm. Besides, the “MIC values E. coli” value in test [3] is on record as >100 ppm. In addition, in test [4], the “MIC values A. niger” value stood at 100 ppm. Moreover, the “MIC values P. aeruginosa” value in test [5] was >100 ppm.
As for `CCOc1cc(/C=C/c2ccccc2)ccc1O` [Comp. of formula 110], in test [1], the “MIC values C. albicans” value was >100 ppm. Besides, the “MIC values S. heminis” value in test [2] was >100 ppm. For the same compound, in test [3], the “MIC values E. coli” value was >100 ppm. Further, in test [4], the “MIC values A. niger” value was >100 ppm. Also, the “MIC values P. aeruginosa” value in test [5] was >100 ppm.
Take `COc1cc(/C=C/c2ccccc2)ccc1O` [Comp. of formula 111]: the “MIC values C. albicans” value in test [1] is on record as >100 ppm. The “MIC values S. heminis” value in test [2] is on record as >100 ppm. Moreover, the “MIC values E. coli” value in test [3] was >100 ppm. Also, the “MIC values A. niger” value in test [4] is 100 ppm. In addition, the “MIC values P. aeruginosa” value in test [5] is on record as >100 ppm.
Consider `Oc1ccccc1/C=C/c1ccccc1` [Comp. of formula 113], for which, in test [1], the “MIC values C. albicans” value was 60 ppm. Further, the “MIC values S. heminis” value in test [2] is reported as 100 ppm. In test [3], the “MIC values E. coli” value stood at 100 ppm. The “MIC values A. niger” value in test [4] is recorded as 60 ppm. Moreover, the “MIC values P. aeruginosa” value in test [5] is listed as >100 ppm.
On to `COc1cc(/C=C/c2ccccc2)cc(O)c1OC` [Comp. of formula 114], for which the “MIC values C. albicans” value in test [1] is recorded as >100 ppm. In addition, in test [2], the “MIC values S. heminis” value is given as >100 ppm. In addition, the “MIC values E. coli” value in test [3] turned out to be 100 ppm. In addition, the “MIC values A. niger” value in test [4] worked out at 100 ppm. Also, the “MIC values P. aeruginosa” value in test [5] is given as >100 ppm.
`Cc1cccc(/C=C/c2ccccc2)c1O` [Comp. of formula 116]: the “MIC values C. albicans” value in test [1] amounted to 60 ppm. Also, the “MIC values S. heminis” value in test [2] is listed as 60 ppm. Also, the “MIC values E. coli” value in test [3] is reported as 60 ppm. Moreover, the “MIC values A. niger” value in test [4] turned out to be 60 ppm. Moreover, in test [5], the “MIC values P. aeruginosa” value came to 100 ppm.
`Oc1ccc(/C=C/c2ccc(Cl)cc2)cc1` [Comp. of formula 119]: in test [1], the “MIC values C. albicans” value came out at 15 ppm. The “MIC values S. heminis” value in test [2] was 7.5 ppm. Besides, in test [3], the “MIC values E. coli” value is given as >100 ppm. The “MIC values A. niger” value in test [4] came out at 100 ppm. In test [5], the “MIC values P. aeruginosa” value was >100 ppm.
For `Oc1cccc(/C=C/c2ccc(Cl)cc2)c1` [Comp. of formula 120], in test [1], the “MIC values C. albicans” value was found to be 7.5 ppm. The “MIC values S. heminis” value in test [2] is recorded as 7.5 ppm. Besides, the “MIC values E. coli” value in test [3] is listed as 7.5 ppm. Also, the “MIC values A. niger” value in test [4] is reported as 30 ppm. Moreover, in test [5], the “MIC values P. aeruginosa” value is recorded as >100 ppm.
Regarding `COc1ccc(/C=C/c2ccc(Cl)cc2)cc1O` [Comp. of formula 121], the “MIC values C. albicans” value in test [1] is reported as >100 ppm. For the same compound, the “MIC values S. heminis” value in test [2] is reported as >100 ppm. In addition, the “MIC values E. coli” value in test [3] is >100 ppm. Besides, the “MIC values A. niger” value in test [4] is >100 ppm. In test [5], the “MIC values P. aeruginosa” value was >100 ppm.
Consider `CCOc1cc(/C=C/c2ccc(Cl)cc2)ccc1O` [Comp. of formula 122], for which, in test [1], the “MIC values C. albicans” value was >100 ppm. Also, in test [2], the “MIC values S. heminis” value is >100 ppm. Besides, the “MIC values E. coli” value in test [3] is recorded as >100 ppm. In addition, the “MIC values A. niger” value in test [4] is >100 ppm. Also, the “MIC values P. aeruginosa” value in test [5] is >100 ppm.
Turning to `COc1cc(/C=C/c2ccc(Cl)cc2)ccc1O` [Comp. of formula 123], the “MIC values C. albicans” value in test [1] is on record as >100 ppm. Besides, in test [2], the “MIC values S. heminis” value is >100 ppm. For the same compound, in test [3], the “MIC values E. coli” value was >100 ppm. Also, the “MIC values A. niger” value in test [4] was determined as 100 ppm. In addition, in test [5], the “MIC values P. aeruginosa” value is recorded as >100 ppm.
